The text below walks through data of ChEMBL document CHEMBL3774306, “Bisimidazoline arylamides binding to the DNA minor groove: N1-hydroxylation enhances binding affinity and selectivity to AATT sites” (Medchemcomm, 2015).

The nature of test [1]: Binding affinity to biotin labelled 5'-CGAATTCGTCTCCGAATTCG-3' hairpin dsDNA (unknown origin) immobilized on biosensor chip by surface plasmon resonance analysis. More on the design: species or system Homo sapiens. For orientation: SPR reads the build-up and loss of mass on a sensor chip optically.
Test [2] can be described thus: Binding affinity to biotin labelled 5'-CATATATATCCCCATATATATG-3' hairpin dsDNA (unknown origin) immobilized on biosensor chip by surface plasmon resonance analysis. More on the design: species or system Homo sapiens.
Test [3] in a line: Binding affinity to biotin labelled 5'-CGCGCGCGTTTTCGCGCGCG-3' hairpin dsDNA (unknown origin) immobilized on biosensor chip by surface plasmon resonance analysis. More on the design: species or system Homo sapiens.
The species entered for test [4] is Homo sapiens. Description: Selectivity ratio of Kd for biotin labelled 5'-CATATATATCCCCATATATATG-3' hairpin dsDNA (unknown origin) to Kd for biotin labelled 5'-CGAATTCGTCTCCGAATTCG-3' hairpin dsDNA (unknown origin).
The species named for test [5] is Homo sapiens. Description: Ratio of primary binding constant to secondary binding constant for biotin labelled 5'-CATATATATCCCCATATATATG-3' hairpin dsDNA (unknown origin) immobilized on biosensor chip by surface plasmon resonance analysis.
The species named for test [6] is Homo sapiens. Description: Ratio of primary binding constant to secondary binding constant for biotin labelled 5'-CGAATTCGTCTCCGAATTCG-3' hairpin dsDNA (unknown origin) immobilized on biosensor chip by surface plasmon resonance analysis.
For test [7], the species on record is Homo sapiens. Description: Selectivity ratio of Kd for biotin labelled 5'-CGCGCGCGTTTTCGCGCGCG-3' hairpin dsDNA (unknown origin) to Kd for biotin labelled 5'-CATATATATCCCCATATATATG-3' hairpin dsDNA (unknown origin).
Test [8] is described as follows: Binding affinity to fish sperm DNA assessed as hypochromicity change at 30 uM by UV-vis spectrophotometry relative to control. The settings on record: Hyperoartia.
The species entered for test [9] is Homo sapiens. Description: Binding affinity to CGAATTCG dsDNA (unknown origin) assessed as spectral changes at 2.5 uM by UV-vis spectrophotometry.
The species named for test [10] is Homo sapiens. Description: Binding affinity to CATATATAT dsDNA (unknown origin) assessed as spectral changes at 2.5 uM by UV-vis spectrophotometry.
For test [11], the species on record is Homo sapiens. Description: Binding affinity to CGCGCGCG dsDNA (unknown origin) assessed as spectral changes at 2.5 uM by UV-vis spectrophotometry.
Test [12] is filed under the species Homo sapiens. Description: Binding affinity to CGAATTCG dsDNA (unknown origin) assessed as isosbestic point at 2.5 uM by UV-vis spectrophotometry.
Test [13] is filed under the species Homo sapiens. Description: Binding affinity to CATATATAT dsDNA (unknown origin) assessed as isosbestic point at 2.5 uM by UV-vis spectrophotometry.
The species entered for test [14] is Homo sapiens. Description: Binding affinity to CGCGCGCG dsDNA (unknown origin) assessed as isosbestic point at 2.5 uM by UV-vis spectrophotometry.
The species named for test [15] is Homo sapiens. Description: Binding affinity to GAATAATCGCGATTATTC dsDNA (39 bp) (unknown origin) assessed as slow binding constant.
For test [16], the species on record is Homo sapiens. Description: Binding affinity to GAATAATCGCGATTATTC dsDNA (39 bp) (unknown origin) assessed as long lasting constant.
The nature of test [17]: Binding affinity to biotin labelled 5'-CATATATATCCCCATATATATG-3' hairpin dsDNA (unknown origin) immobilized on streptavidin-derivatized gold chip incubated for 5 mins followed by dissociation period of 5 mins by surface plasmon resonance analysis. More on the design: species or system Homo sapiens.

Activity calls are given as the source filed them. The rule behind the calls is not given here.

On to `O=C(Nc1ccc(NC2=NCCN2)cc1)c1ccc(NC2=NCCN2)cc1`, for which the Kd is 166 nM in test [1], 307 nM in test [2] and greater than 10 µM in test [3] (read-out: Kd). In addition, the Selectivity ratio in the test listed under Homo sapiens [4] is 1.5. Further, the Ratio in the test filed under Homo sapiens [5] and in the test filed under Homo sapiens [6] was 100 in each case.
As for `N=C(N)Nc1ccc(NC(=O)c2ccc(NC(=N)N)cc2)cc1`, the Kd in test [3] (read-out: Kd) was greater than 10 µM.
As for `O=C(Nc1ccc(NC2=NCCN2)cc1)Nc1ccc(NC2=NCCN2)cc1`, the figures for the Kd in [1], in test [2] and in test [3] (read-out: Kd) were 11600 nM, 8060 nM and 159 µM, respectively. Also, the Ratio in the test listed under Homo sapiens [5] and in the test listed under Homo sapiens [6] was 100 in each case. Further, the Selectivity ratio in the test listed under Homo sapiens [7] turned out to be 10.
As for `CC/N=C(\N)Nc1ccc(NC(=O)Nc2ccc(N/C(N)=N/CC)cc2)cc1`, the Kd in test [1] was greater than 29000 nM; in test [2], greater than 29000 nM; in [3], “Not Active”.
For the molecule `O=C(Nc1ccc(NC2=[N+]([O-])CCN2)cc1)c1ccc(NC2=[N+]([O-])CCN2)cc1`, the Activity in [8] was determined as 9%. The outcome in the test filed under Homo sapiens [9], in the test listed under Homo sapiens [10] and in the test filed under Homo sapiens [11] was Active. Moreover, the Kd in test [1] was 77 nM; in [2], 273 nM; in test [3] (read-out: Kd), 18.5 µM. For the same molecule, in the test listed under Homo sapiens [4], the Selectivity ratio came out at 3.5. Also, the Ratio in the test filed under Homo sapiens [5] and in the test filed under Homo sapiens [6] was 100 throughout.
In the case of `CC/N=C(\N)Nc1ccc(NC(=O)c2ccc(N/C(N)=N/CC)cc2)cc1`, the Kd in [3] (read-out: Kd) is greater than 10 µM.
For `[O-][N+]1=C(Nc2ccc(Nc3cccc(NC4=[N+]([O-])CCN4)c3)cc2)NCC1`, the Activity in the test filed under Homo sapiens [12] turned out to be 325 nm; in the test listed under Homo sapiens [13], 335 nm. In the test filed under Homo sapiens [14], the outcome was inactive. In addition, the Kd in test [1] worked out at 568 nM; in [2], 1790 nM; in test [3] (read-out: Kd) it was 66.7 µM. The Ratio in the test filed under Homo sapiens [5] and in the test filed under Homo sapiens [6] was 100 in each case. In addition, the results for the K in the test filed under Homo sapiens [15] and in the test listed under Homo sapiens [16] were 38 M⁻¹ s⁻¹ and 0.00265 s⁻¹, respectively.
As for `c1cc(NC2=NCCN2)cc(Nc2ccc(NC3=NCCN3)cc2)c1`, the Kd in test [1] is 2700 nM; in test [3], “Not Active”; in test [17], 2170 nM. The Ratio in the test listed under Homo sapiens [5] and in the test filed under Homo sapiens [6] was 100 throughout.
Regarding `[O-][N+]1=C(Nc2ccc(CCc3ccc(NC4=[N+]([O-])CCN4)cc3)cc2)NCC1`, the Activity in test [8] was found to be 9%. The Kd came to 870 nM in test [1], 4000 nM in test [2] and 76.9 µM in test [3] (read-out: Kd). For the same molecule, the Ratio in the test filed under Homo sapiens [5] and in the test listed under Homo sapiens [6] was 30 in each case.
`CC(C)/N=C(\N)Nc1ccc(NC(=O)c2ccc(N/C(N)=N/C(C)C)cc2)cc1`: in [3] (read-out: Kd), the Kd was greater than 10 µM.
As for `CO[N+]1=C(Nc2ccc(NC(=O)c3ccc(NC4=[N+](OC)CCN4)cc3)cc2)NCC1`, the Activity in test [8] is 9%. In addition, the Kd was 256 nM in test [1], 351 nM in [2] and greater than 10 µM in [3] (read-out: Kd). Moreover, the Selectivity ratio in the test listed under Homo sapiens [4] came to 1.5. Besides, the Ratio in the test listed under Homo sapiens [5] and in the test listed under Homo sapiens [6] was 100 each time.
With `c1cc(NC2=NCCN2)ccc1CCc1ccc(NC2=NCCN2)cc1`, the figures for the equilibrium dissociation constant (Kd) in test [1], in [2] and in test [3] (read-out: Kd) were 2780 nM, 4350 nM and 19.6 µM, respectively. In addition, the Ratio in the test listed under Homo sapiens [5] and in the test filed under Homo sapiens [6] was 5 each time.
With `CCO[N+]1=C(Nc2ccc(CCc3ccc(NC4=[N+](OCC)CCN4)cc3)cc2)NCC1`, in [8], the Activity was determined as 9%. Besides, the Kd is greater than 29000 nM in test [1], greater than 29000 nM in test [2] and greater than 29 µM in test [3] (read-out: Kd). Besides, the Ratio in the test filed under Homo sapiens [5] and in the test filed under Homo sapiens [6] was 100 each time.

For orientation: Kd means the equilibrium constant for the complex coming apart.
